What all share (test): In vitro competitive activity-based protein profiling (gel-based, FP-Rh or HT-01 probe)
Type in all cases: biochemical

One assay concerns the target T1, ABHD6 (Mus musculus, UniProt Q8R2Y0).
T1 construct: Proteomes (mouse brain membrane fraction or cell lysates); from tissue; host or cells: mouse brain membrane fraction (or cell lysates, not specified)
T1 sequence (Q8R2Y0 1-336): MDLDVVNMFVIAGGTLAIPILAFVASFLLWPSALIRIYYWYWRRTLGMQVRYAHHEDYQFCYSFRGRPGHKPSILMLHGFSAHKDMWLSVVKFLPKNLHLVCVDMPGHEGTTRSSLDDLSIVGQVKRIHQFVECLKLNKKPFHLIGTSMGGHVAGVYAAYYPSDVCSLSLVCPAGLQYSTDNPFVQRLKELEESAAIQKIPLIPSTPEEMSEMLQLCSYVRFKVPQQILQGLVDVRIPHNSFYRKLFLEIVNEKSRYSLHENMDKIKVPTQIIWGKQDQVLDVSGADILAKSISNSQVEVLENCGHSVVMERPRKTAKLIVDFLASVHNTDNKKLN
The note with it: for inhibition at 1 µM: 1 μM inhibitor, read-out: % Inhibition at 1 μM, C = ABHD6; for inhibition at 10 µM: 10 μM inhibitor, read-out: % Inhibition at 10 μM, C = ABHD6. In short, it runs like this: (§1)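 Mouse brain membrane or cell lysate proteomes (1.0 mg/mL) preincubated with inhibitors 30 min at 37° C, then labelled with FP-Rh or HT-01 for 30 min at 37° C. After SDS-PAGE, activity quantified from fluorescent band intensity.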

The target of the next assay is T2, FAAH (Mus musculus, UniProt O08914).
T2 construct: Proteomes (mouse brain membrane fraction or cell lysates); from tissue; host or cells: mouse brain membrane fraction (or cell lysates, not specified)
T2 sequence (O08914 1-579): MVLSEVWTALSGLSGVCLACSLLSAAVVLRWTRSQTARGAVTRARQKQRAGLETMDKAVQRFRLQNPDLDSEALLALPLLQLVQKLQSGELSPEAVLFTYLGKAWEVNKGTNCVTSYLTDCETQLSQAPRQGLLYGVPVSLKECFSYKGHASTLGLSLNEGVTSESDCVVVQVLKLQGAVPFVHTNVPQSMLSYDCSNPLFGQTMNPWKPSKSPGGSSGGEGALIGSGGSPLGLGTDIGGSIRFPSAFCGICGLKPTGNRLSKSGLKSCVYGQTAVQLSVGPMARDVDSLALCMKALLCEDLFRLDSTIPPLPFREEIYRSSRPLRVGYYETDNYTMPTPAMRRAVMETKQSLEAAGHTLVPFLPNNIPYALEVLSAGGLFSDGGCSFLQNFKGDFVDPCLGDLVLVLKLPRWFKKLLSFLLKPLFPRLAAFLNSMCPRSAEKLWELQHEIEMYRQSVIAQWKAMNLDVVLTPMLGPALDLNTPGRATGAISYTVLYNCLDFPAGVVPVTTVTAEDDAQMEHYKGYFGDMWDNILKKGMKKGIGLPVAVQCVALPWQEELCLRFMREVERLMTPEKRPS
The note with it: for inhibition at 1 µM: 1 μM inhibitor, read-out: % Inhibition at 1 μM, B = FAAH; for inhibition at 10 µM: 10 μM inhibitor, read-out: % Inhibition at 10 μM, B = FAAH. In short, it runs like this: as §1

The target of a further assay is T3, MAGL (Mus musculus, UniProt O35678).
T3 construct: Proteomes (mouse brain membrane fraction or cell lysates); from tissue; host or cells: mouse brain membrane fraction (or cell lysates, not specified)
T3 sequence (O35678 1-303): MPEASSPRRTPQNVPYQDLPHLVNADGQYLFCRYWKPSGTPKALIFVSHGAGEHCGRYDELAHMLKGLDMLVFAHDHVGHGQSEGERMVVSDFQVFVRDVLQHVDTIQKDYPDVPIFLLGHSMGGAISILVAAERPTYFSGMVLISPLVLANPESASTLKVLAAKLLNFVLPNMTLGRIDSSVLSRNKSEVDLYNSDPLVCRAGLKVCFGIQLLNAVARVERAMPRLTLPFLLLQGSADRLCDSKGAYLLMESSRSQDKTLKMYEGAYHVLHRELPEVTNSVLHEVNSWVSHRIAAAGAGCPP
The note with it: for inhibition at 1 µM: 1 μM inhibitor; for inhibition at 10 µM: 10 μM inhibitor. In short, it runs like this: as §1

The target in another assay is T4, PLA2G7 (Mus musculus, UniProt Q60963).
T4 construct: Proteomes (mouse brain membrane fraction or cell lysates); from tissue; host or cells: mouse brain membrane fraction (or cell lysates, not specified)
T4 sequence (Q60963 22-440): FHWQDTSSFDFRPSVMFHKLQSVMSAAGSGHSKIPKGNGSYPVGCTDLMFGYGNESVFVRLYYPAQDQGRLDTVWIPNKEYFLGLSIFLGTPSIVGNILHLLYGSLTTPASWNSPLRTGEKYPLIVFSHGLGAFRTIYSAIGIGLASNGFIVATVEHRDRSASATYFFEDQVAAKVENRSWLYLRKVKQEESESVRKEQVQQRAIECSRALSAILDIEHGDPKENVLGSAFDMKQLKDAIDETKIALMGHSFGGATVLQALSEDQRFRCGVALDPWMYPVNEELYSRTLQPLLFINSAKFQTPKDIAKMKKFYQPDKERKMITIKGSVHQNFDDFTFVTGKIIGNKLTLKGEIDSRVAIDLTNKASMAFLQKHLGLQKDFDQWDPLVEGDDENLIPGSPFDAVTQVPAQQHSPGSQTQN
The settings on record: for inhibition at 1 µM: 1 μM inhibitor, read-out: % Inhibition at 1 μM, D = PLA2G7; for inhibition at 10 µM: 10 μM inhibitor, read-out: % Inhibition at 10 μM, D = PLA2G7. The procedure, abridged:
as §1

The structures appear in SMILES notation. A value given as a limit tells only on which side of the number the result lay.

By inhibition is commonly meant how much of the control response was suppressed. For the compound `O=C(N1CCN(Cc2ccc(-c3ccccc3)cc2OCc2ccccc2)CC1)n1cc(C(F)(F)F)cn1` [Example 147, (4-((3-(Benzyloxy)biphenyl-4-yl)methyl)piperazin-1-yl)(4-(trifluoromethyl)-1H-pyrazol-1-yl)methanone], the inhibition at 1 µM was above 75% on ABHD6, above 75% at FAAH, above 75% on MAGL and below 25% at PLA2G7. For the same compound, the inhibition at 10 µM on ABHD6, at FAAH, at MAGL and at PLA2G7 was above 75% in each case.
`O=C(N1CCN(Cc2ccc(-c3ccccc3)cc2OCc2ccccc2)CC1)n1cc(Cl)cn1` [Example 148, (4-((3-(Benzyloxy)biphenyl-4-yl)methyl)piperazin-1-yl)(4-chloro-1H-pyrazol-1-yl)methanone]: the inhibition at 1 µM at ABHD6 is above 75%; on FAAH, above 75%; at MAGL, above 75%; at PLA2G7 it was below 25%. Also, the inhibition at 10 µM at ABHD6 is above 75%; at FAAH it was above 75%; at MAGL, above 75%; at PLA2G7, below 25%.
`CC(=O)N1CCN(C(=O)n2cc(C(F)(F)F)cn2)CC1` [Example 149, 1-(4-(4-(Trifluoromethyl)-1H-pyrazole-1-carbonyl)piperazin-1-yl)ethanone]: the inhibition at 1 µM at ABHD6 is below 25%; on FAAH it was below 25%; at MAGL, below 25%; at PLA2G7, above 75%. Also, the inhibition at 10 µM on ABHD6 is 25 to 75%; on FAAH it was below 25%; at MAGL, 25 to 75%; on PLA2G7, above 75%.
Regarding `CS(=O)(=O)N1CCN(C(=O)n2cc(C(F)(F)F)cn2)CC1` [Example 150, (4-(Methylsulfonyl)piperazin-1-yl)(4-(trifluoromethyl)-1H-pyrazol-1-yl)methanone], the inhibition at 1 µM at ABHD6 is above 75%; at FAAH it was below 25%; on MAGL, below 25%; on PLA2G7 it was above 75%. Moreover, the inhibition at 10 µM at ABHD6 was above 75%; at FAAH, 25 to 75%; at MAGL it was 25 to 75%; on PLA2G7 it was above 75%.
Consider `CN1CCN(C(=O)n2cc(C(F)(F)F)cn2)CC1` [Example 151, (4-Methylpiperazin-1-yl)(4-(trifluoromethyl)-1H-pyrazol-1-yl)methanone], for which the inhibition at 1 µM was above 75% on ABHD6, above 75% at FAAH, below 25% at MAGL and 25 to 75% on PLA2G7. In addition, the inhibition at 10 µM at ABHD6, on FAAH, at MAGL and at PLA2G7 was above 75% each time.
With `O=C(N1CCN(Cc2ccccc2)CC1)n1cc(C(F)(F)F)cn1` [Example 152, (4-Benzylpiperazin-1-yl)(4-(trifluoromethyl)-1H-pyrazol-1-yl)methanone], the inhibition at 1 µM at ABHD6, on FAAH, at MAGL and at PLA2G7 was above 75% throughout. In addition, the inhibition at 10 µM at ABHD6, at FAAH, at MAGL and at PLA2G7 was above 75% in each case.
Regarding `O=C(c1ccccc1)N1CCN(C(=O)n2cc(C(F)(F)F)cn2)CC1` [Example 153, (4-Benzoylpiperazin-1-yl)(4-(trifluoromethyl)-1H-pyrazol-1-yl)methanone], the inhibition at 1 µM on ABHD6 is below 25%; at FAAH it was below 25%; on MAGL it was above 75%; on PLA2G7, above 75%. Moreover, the inhibition at 10 µM at ABHD6 is above 75%; on FAAH it was 25 to 75%; on MAGL, above 75%; on PLA2G7, above 75%.
Consider `CC(=O)N1CCCN(C(=O)n2cc(C(F)(F)F)cn2)CC1` [Example 154, 1-(4-(4-(trifluoromethyl)-1H-pyrazole-1-carbonyl)-1,4-diazepan-1-yl)ethanone], for which the inhibition at 1 µM was below 25% on ABHD6, below 25% at FAAH, below 25% on MAGL and 25 to 75% on PLA2G7. In addition, the inhibition at 10 µM is above 75% at ABHD6, 25 to 75% on FAAH, below 25% at MAGL and above 75% on PLA2G7.
Take `CS(=O)(=O)N1CCCN(C(=O)n2cc(C(F)(F)F)cn2)CC1` [Example 155, (4-(Methylsulfonyl)-1,4-diazepan-1-yl)(4-(trifluoromethyl)-1H-pyrazol-1-yl)methanone]: the inhibition at 1 µM at ABHD6 is below 25%; at FAAH, 25 to 75%; on MAGL, below 25%; at PLA2G7 it was above 75%. The inhibition at 10 µM at ABHD6 was above 75%; at FAAH it was above 75%; on MAGL, 25 to 75%; at PLA2G7 it was above 75%.
Turning to `CN1CCCN(C(=O)n2cc(C(F)(F)F)cn2)CC1` [Example 156, (4-Methyl-1,4-diazepan-1-yl)(4-(trifluoromethyl)-1H-pyrazol-1-yl)methanone], the inhibition at 1 µM on ABHD6, at FAAH, at MAGL and at PLA2G7 was below 25% each time. Moreover, the inhibition at 10 µM at ABHD6 is below 25%; on FAAH it was 25 to 75%; on MAGL it was below 25%; at PLA2G7, above 75%.
Usually IC50 stands for the concentration at which inhibition is half-maximal. In the case of `O=C(N1CCCN(Cc2ccccc2)CC1)n1cc(C(F)(F)F)cn1` [Example 157, (4-Benzyl-1,4-diazepan-1-yl)(4-(trifluoromethyl)-1H-pyrazol-1-yl)methanone], the inhibition at 1 µM on ABHD6 is above 75%; at FAAH, above 75%; at MAGL, above 75%; on PLA2G7, below 25%. Besides, the inhibition at 10 µM at ABHD6, on FAAH, at MAGL and on PLA2G7 was above 75% throughout. Moreover, the IC50 at ABHD6 (mouse brain membrane fraction or cell lysates, 30 min preincubation at 37° C., read-out: Mouse (IC50 value, nM) ABHD6) is above 1000 nM; on FAAH (mouse brain membrane fraction or cell lysates, 30 min preincubation at 37° C., read-out: Mouse (IC50 value, nM) FAAH) it was 100 to 1000 nM; at MAGL (mouse brain membrane fraction or cell lysates, 30 min preincubation at 37° C., read-out: Mouse (IC50 value, nM) MAGL), above 1000 nM; at PLA2G7 (mouse brain membrane fraction or cell lysates, 30 min preincubation at 37° C.), above 1000 nM.

The values are drawn from patent US10093630B2, “Pyrazole compounds and methods of making and using same” (ABIDE THERAPEUTICS, INC., priority 2014, dated 2018).
